“And” between values parts separate entries of the source, which are not always exact repeats. Equal values may be shown once.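 Exposure lasted 48 hours, with cells grown in 96-well plates and compounds tested at five concentrations. Here, GI50 denotes the concentration required for 50% inhibition of growth. TGI denotes the concentration required for complete inhibition of growth.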
Columns and labels:
Experiment in all cases: NCI tumour cell line growth inhibition, 48 h
[1] = test system: LOX IMVI melanoma
[2] = test system: SF-539 CNS
[3] = test system: NCI-H226 lung
[4] = test system: NCI-H23 lung
[5] = test system: HCT-116 colon
[6] = test system: CCRF-CEM leukemia
[7] = test system: SK-MEL-28 melanoma
[8] = test system: UACC-257 melanoma
[9] = test system: PC-3 prostate
[10] = test system: HOP-92 NSCLC

| SMILES | TGI [1] | TGI [2] | TGI [3] | TGI [4] | TGI [5] | TGI [6] | TGI [7] | TGI [8] | GI50 [9] | TGI [9] | GI50 [1] | GI50 [2] | GI50 [3] | GI50 [10] | TGI [10] | GI50 [5] | GI50 [7] | GI50 [4] | GI50 [6] | GI50 [8] |
| --- | --- | --- | --- | --- | --- | --- | --- | --- | --- | --- | --- | --- | --- | --- | --- | --- | --- | --- | --- | --- |
| CN1C/C(=C\C=C\c2ccccc2)C(=O)/C(=C/C=C/c2ccccc2)C1 | > 100 µM | > 100 µM | > 100 µM | > 100 µM | > 100 µM | > 100 µM | > 100 µM | > 100 µM |  |  |  |  |  |  |  |  |  |  |  |  |
| CNCCN=c1ccc2c3c1c(O)c1c(O)ccc(=O)c1c3[nH]n2CCNCCO |  | 1.32 µM | 0.336 µM | 2.75 µM | 4.9 µM and 5.37 µM |  | 6.87 µM | 7 µM | 0.41 µM | 6.66 µM and 4.9 µM | 0.0949 µM and 0.395 µM | 0.0576 µM | 0.000924 µM | 0.199 µM | 2.64 µM and 1.37 µM | 0.207 µM | 1.5 µM |  |  |  |
| O=S1Nc2c(Cl)cc(Cl)c(Cl)c2S1 (centres undefined) | > 100 µM | > 100 µM | > 100 µM | > 100 µM | > 100 µM | > 100 µM | > 100 µM | > 100 µM |  |  |  |  |  |  | > 100 µM |  |  |  |  |  |
| CCc1cccc(C)c1NC(=O)CC1C(=O)Nc2ccccc2S1(=O)=O (centres undefined) | 27.3 µM | 24.6 µM | > 100 µM | 41.1 µM | 35.4 µM | 41.6 µM | 48.1 µM | 82.7 µM |  |  |  |  |  |  | 31.8 µM |  |  |  |  |  |
| O=c1oc2ccccc2c(O)c1C(C/C(CCN1CCCC1)=N\Nc1ccccc1)c1ccccc1 (centres undefined) | > 100 µM | > 100 µM | > 100 µM | > 100 µM | > 100 µM | 69.5 µM |  | > 100 µM |  |  |  |  |  |  | 83.6 µM |  |  |  |  |  |
| COC(=O)c1nn(C(=N)c2ccc(Cl)cc2)c2c1CCC2 | > 100 µM | > 100 µM | > 100 µM | > 100 µM | > 100 µM | > 100 µM | > 100 µM | > 100 µM |  |  |  |  |  |  | > 100 µM |  |  |  |  |  |
| CCCCCn1c(C)cc(/C=C\c2ccc3cc(C)ccc3[n+]2C)c1C | 1.85 µM | 1.06 µM |  | 1.1 µM | 1.09 µM | 0.601 µM | 1.71 µM | 1.45 µM | 0.0623 µM | 1.03 µM | 0.0951 µM | 0.241 µM |  | 0.109 µM | 0.487 µM | 0.0343 µM | 0.339 µM | 0.0414 µM | 0.0354 µM | 0.367 µM |
| OCCN1CCN(CC/C=C2/c3ccccc3Sc3ccc(Cl)cc32)CC1 | 21.8 µM | 25.7 µM | 28.2 µM | 29.2 µM | 21.7 µM | 23.6 µM | 3.38 µM | 7.16 µM |  |  |  |  |  |  | 20.9 µM |  |  |  |  |  |
| C[C@]12CCC(=O)C=C1CC[C@@H]1C2CC[C@]2(C)c3nn(-c4ccccc4)nc3CC12 (some centres undefined) | > 100 µM | > 100 µM | > 100 µM | > 100 µM | > 100 µM | > 100 µM | > 100 µM | > 100 µM |  |  |  |  |  |  | > 100 µM |  |  |  |  |  |
| Oc1c(CN2CCN(c3ccccc3)CC2)cc(Br)c2cccnc12 | 17 µM | > 28.6 µM |  | > 100 µM | > 28.4 µM | > 100 µM | > 100 µM | > 100 µM |  | 32.5 µM |  |  |  |  | 30.8 µM |  |  |  |  |  |
| CC(=O)[CH-]C(=O)c1ccccc1.CC(=O)[CH-]C(=O)c1ccccc1.CC[O-].O=C1c2ccccc2C(=O)c2c1ccc(O)c2[O-].[Ti+4] | > 100 µM | > 100 µM | > 100 µM | > 100 µM | > 100 µM | 56.6 µM | > 100 µM | > 100 µM |  |  |  |  |  |  | > 100 µM |  |  |  |  |  |
| CN(C)CC/C(=N\Nc1ccc(Cl)cc1Cl)c1ccccc1 | 28 µM | 35 µM |  | 31.6 µM | 27.9 µM | 31.2 µM | 28.5 µM | 30.1 µM |  |  |  |  |  |  |  |  |  |  |  |  |
| CCCCCCCCCCC(C)CCCCCCC(=O)O (centres undefined) | > 100 µM | > 100 µM | > 100 µM | > 100 µM | > 100 µM | > 100 µM | > 100 µM | > 100 µM |  |  |  |  |  |  | > 100 µM |  |  |  |  |  |
| Cc1ccc([C@]2(C)CC[C@H](C)/C2=C\Br)c(O)c1 | 22.3 µM | 4.17 µM |  | 24.9 µM | 9.33 µM | 35.6 µM | 17.6 µM | 22 µM | 4.2 µM | 17.7 µM | 8.21 µM | 1.85 µM |  | 10.4 µM | 25.2 µM | 2.88 µM | 5.07 µM | 11.4 µM | 6.77 µM | 9.22 µM |
| C/C=N\N1C(=O)c2ccccc2C1=O | > 100 µM | > 100 µM | > 100 µM | > 100 µM | > 100 µM | > 100 µM | > 100 µM | > 100 µM |  |  |  |  |  |  | > 100 µM |  |  |  |  |  |
| CCN(CC)CCNC(=O)c1cccc2nc3ccccc3nc12 | 29.5 µM | 28.8 µM | 34.2 µM | 31.8 µM | 45.6 µM |  | 34.3 µM | 27.7 µM |  |  |  |  |  |  | > 73.4 µM |  |  |  |  |  |
| O=C(O)C(Oc1nc(=S)[nH]c(=S)[nH]1)(c1ccc(Cl)cc1)c1ccc(Cl)cc1 | > 100 µM | > 100 µM | > 100 µM | > 100 µM | > 100 µM |  | > 100 µM | > 100 µM |  | > 100 µM |  |  |  |  | > 100 µM |  |  |  |  |  |
| N.N.O=P([O-])([O-])C1(P(=O)([O-])[O-])CCCCCN1.[Pt+2] | > 100 µM | > 100 µM | > 100 µM | > 100 µM | > 100 µM | > 100 µM | > 100 µM | > 100 µM |  |  | > 100 µM | 31.9 µM | > 100 µM | > 100 µM | > 100 µM | > 100 µM | > 100 µM | > 100 µM | > 100 µM | > 100 µM |
| NNC(=O)C(=O)N/N=C(\CCC(=O)Nc1ccc(Cl)cc1)Cc1nc2ccccc2s1 | 67.5 µM | 90.4 µM | > 100 µM | > 100 µM | > 100 µM | 77.1 µM | > 100 µM | > 100 µM |  |  |  |  |  |  | > 100 µM |  |  |  |  |  |

— PubChem BioAssay (NCI)
